# Test results as given in PMC3704662, “Synthesis, docking and acetylcholinesterase inhibitory assessment of 2-(2-(4-Benzylpiperazin-1-yl)ethyl)isoindoline-1,3-dione derivatives with potential anti-Alzheimer effects” (DARU Journal of Pharmaceutical Sciences, 2013).
# Target: T1, acetylcholinesterase from electric eel (AChE, E.C. 3.1.1.7, Type V-S) (Electrophorus electricus, UniProt O42275)
# T1 construct: purchased Sigma-Aldrich (Steinheim, Germany) Type V-S (catalogue number not given)
# Assay: biochemical
# Conditions: Ellman test; IC50 ± SEM; 15 min preincubation at 25°C; pH 8.0; acetylthiocholine iodide substrate; triplicate; read-out: IC50 of in vitro acetylcholinesterase assay
# Protocol: Lyophilized powder of acetylcholinesterase from electric eel source (AChE, E.C. 3.1.1.7, Type V-S, 1000 unit) was purchased from Sigma-Aldrich (Steinheim, Germany). 5,5’-Dithiobis-(2-nitrobenzoic acid), potassium dihydrogen phosphate, dipotassium hydrogen phosphate, potassium hydroxide, sodium hydrogen carbonate, and acetylthiocholine iodide were purchased from Fluka (Buchs, Switzerland). […] The Ellman test was carried out for assessment of the anticholinesterase activity of intended compounds in vitro. Prior to use, all solutions were adjusted to 25°C. […] The assay solution consisted of a 0.1 M potassium phosphate buffer pH 8.0, with the addition of 0.01 M 5,50-dithio-bis(2-nitrobenzoic acid), 2.5 unit/mL of enzyme solution (AChE, E.C. 3.1.1.7, Type V-S, lyophilized powder, from electric eel) (Sigma Chemical). […] After rapid and immediate mixing the change of absorption was measured at 412 nm. In order to justify non enzymatic reaction assays were carried out with a blank containing all components except AChE.
# The blank reading contained 3 ml buffer, 200 μl water, 100 μl DTNB and 20 μl substrate. The reaction rates were calculated, and the percent inhibition of test compounds was determined. Each concentration was analyzed in triplicate, and IC50 values were determined graphically from inhibition curves (log inhibitor concentration vs percent of inhibition).
# T1 sequence (O42275 24-633): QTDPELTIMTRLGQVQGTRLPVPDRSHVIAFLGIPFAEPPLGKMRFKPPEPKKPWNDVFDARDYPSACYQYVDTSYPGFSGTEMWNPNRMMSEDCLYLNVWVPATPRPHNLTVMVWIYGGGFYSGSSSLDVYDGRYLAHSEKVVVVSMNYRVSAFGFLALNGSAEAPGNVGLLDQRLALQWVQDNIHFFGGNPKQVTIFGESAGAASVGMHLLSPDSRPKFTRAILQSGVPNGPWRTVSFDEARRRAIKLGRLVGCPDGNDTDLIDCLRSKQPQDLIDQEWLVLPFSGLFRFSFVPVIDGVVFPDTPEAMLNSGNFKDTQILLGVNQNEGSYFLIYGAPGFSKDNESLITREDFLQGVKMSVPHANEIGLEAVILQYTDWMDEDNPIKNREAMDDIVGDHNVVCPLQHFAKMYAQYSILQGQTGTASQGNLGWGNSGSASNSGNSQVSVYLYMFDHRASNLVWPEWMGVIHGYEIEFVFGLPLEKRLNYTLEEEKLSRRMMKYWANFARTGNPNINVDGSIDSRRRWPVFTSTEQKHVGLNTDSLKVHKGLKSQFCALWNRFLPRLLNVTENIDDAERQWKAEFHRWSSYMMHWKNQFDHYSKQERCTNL
row,SMILES,IC50
1,"O=C1c2ccccc2C(=O)N1CCN1CCN(Cc2ccc(Cl)cc2)CC1 [Compound 4c, 2-(2-(4-(4-Chlorobenzyl)piperazin-1-yl)ethyl)isoindoline-1,3-dione]",26 ± 5 µM
2,"COc1ccc(CN2CCN(CCN3C(=O)c4ccccc4C3=O)CC2)cc1 [Compound 4h, 2-(2-(4-(4-Methoxybenzyl)piperazin-1-yl)ethyl)isoindoline-1,3-dione]",72 ± 9 µM
3,"O=C1c2ccccc2C(=O)N1CCN1CCN(Cc2ccccc2[N+](=O)[O-])CC1 [Compound 4i, 2-(2-(4-(2-Nitrobenzyl)piperazin-1-yl)ethyl)isoindoline-1,3-dione]",36 ± 5 µM
4,"O=C1c2ccccc2C(=O)N1CCN1CCN(Cc2cccc([N+](=O)[O-])c2)CC1 [Compound 4j, 2-(2-(4-(3-Nitrobenzyl)piperazin-1-yl)ethyl)isoindoline-1,3-dione]",59 ± 6 µM
5,"O=C1c2ccccc2C(=O)N1CCN1CCN(Cc2ccc(F)cc2)CC1 [Compound 4f, 2-(2-(4-(4-Fluorobenzyl)piperazin-1-yl)ethyl)isoindoline-1,3-dione]",42 ± 8 µM
6,"O=C1c2ccccc2C(=O)N1CCN1CCN(Cc2ccccc2F)CC1 [Compound 4d, 2-(2-(4-(2-Fluorobenzyl)piperazin-1-yl)ethyl)isoindoline-1,3-dione]",23 ± 7 µM
7,"O=C1c2ccccc2C(=O)N1CCN1CCN(Cc2ccccc2)CC1 [Compound 4l, 2-(2-(4-Benzylpiperazin-1-yl)ethyl)isoindoline-1,3-dione]",9 ± 2 µM
8,"O=C1c2ccccc2C(=O)N1CCN1CCN(Cc2cccc(Cl)c2)CC1 [Compound 4b, 2-(2-(4-(3-Chlorobenzyl)piperazin-1-yl)ethyl)isoindoline-1,3-dione]",85 ± 12 µM
9,"COc1cccc(CN2CCN(CCN3C(=O)c4ccccc4C3=O)CC2)c1 [Compound 4g, 2-(2-(4-(3-Methoxybenzyl)piperazin-1-yl)ethyl)isoindoline-1,3-dione]",5.5 ± 0.7 µM
10,"O=C1c2ccccc2C(=O)N1CCN1CCN(Cc2ccc([N+](=O)[O-])cc2)CC1 [Compound 4k, 2-(2-(4-(4-Nitrobenzyl)piperazin-1-yl)ethyl)isoindoline-1,3-dione]",40 ± 4 µM
11,"O=C1c2ccccc2C(=O)N1CCN1CCN(Cc2cccc(F)c2)CC1 [Compound 4e, 2-(2-(4-(3-Fluorobenzyl)piperazin-1-yl)ethyl)isoindoline-1,3-dione]",74 ± 11 µM
12,"O=C1c2ccccc2C(=O)N1CCN1CCN(Cc2ccccc2Cl)CC1 [Compound 4a, 2-(2-(4-(2-Chlorobenzyl)piperazin-1-yl)ethyl)isoindoline-1,3-dione]",0.91 ± 0.045 µM
